Test results: patent publication US9655363B2, “Microbiocides” (Syngenta Participations AG, priority 2013, dated 2017)

Legend:
[1] = tested on: Blumeria Graminis f. sp. Tritici (Erysiphe Graminis f. sp. Tritici); test: Blumeria graminis f. sp. tritici / wheat / leaf disc preventative (powdery mildew on wheat); type: in vivo; conditions: foliar, wheat leaf disc cv. Kanzler, compared to untreated, 6-8 days after application, read-out: disease control
Description: Fungicidal Activity Against Blumeria Graminis f. sp. Tritici (Erysiphe Graminis f. sp. Tritici)/Wheat/Leaf Disc Preventative (Powdery Mildew on Wheat) Wheat leaf segments cv. Kanzler were placed on agar in a multiwell plate (24-well format) and sprayed with the formulated test compound diluted in water. The leaf disks were inoculated by shaking powdery mildew infected plants above the test plates 1 day after application. The inoculated leaf disks were incubated at 20° C. and 60% rh under a light regime of 24 h darkness followed by 12 h light/12 h darkness in a climate chamber and the activity of a compound was assessed as percent disease control compared to untreated when an appropriate level of disease damage appears on untreated check leaf segments (6-8 days after application).

[2] = tested on: Puccinia Recondita f. sp. Tritici; test: Puccinia recondita f. sp. tritici / wheat / leaf disc preventative (brown rust); type: in vivo; conditions: foliar, wheat leaf disc cv. Kanzler, compared to untreated, 7-9 days after application, read-out: disease control
Description: Fungicidal Activity Against Puccinia Recondita f. sp. Tritici/Wheat/Leaf Disc Preventative (Brown Rust) Wheat leaf segments cv. Kanzler were placed on agar in multiwell plates (24-well format) and sprayed with the formulated test compound diluted in water. The leaf disks were inoculated with a spore suspension of the fungus 1 day after application. The inoculated leaf segments were incubated at 19° C. and 75% rh under a light regime of 12 h light/12 h darkness in a climate cabinet and the activity of a compound was assessed as percent disease control compared to untreated when an appropriate level of disease damage appears in untreated check leaf segments (7-9 days after application).

[3] = tested on: Puccinia Recondita f. sp. Tritici; test: Puccinia recondita f. sp. tritici / wheat / leaf disc curative (brown rust); type: in vivo; conditions: foliar, 192 h, compared to untreated, 8 days after inoculation, read-out: disease control
Description: Fungicidal Activity Against Puccinia Recondita f. sp. Tritici/Wheat/Leaf Disc Curative (Brown Rust) Wheat leaf segments are placed on agar in multiwell plates (24-well format). The leaf disks are then inoculated with a spore suspension of the fungus. One day after inoculation the test solution is applied. After appropriate incubation the activity of a compound is assessed 8 dpi (days after inoculation) as curative fungicidal activity. Dose range: 200-22 ppm.

[4] = tested on: Mycosphaerella Arachidis (Cercospora Arachidicola); test: Mycosphaerella arachidis (Cercospora arachidicola) / liquid culture (early leaf spot); type: cell-based; conditions: liquid culture (PDB), growth inhibition photometrically 4-5 days after application, read-out: disease control
Description: (§1) Fungicidal Activity Against Mycosphaerella Arachidis (Cercospora Arachidicola)/Liquid Culture (Early Leaf Spot) Conidia of the fungus from cryogenic storage were directly mixed into nutrient broth (PDB potato dextrose broth). After placing a (DMSO) solution of test compound into a microtiter plate (96-well format), the nutrient broth containing the fungal spores was added. The test plates were incubated at 24° C. and the inhibition of growth was determined photometrically 4-5 days after application.

[5] = tested on: Mycosphaerella Graminicola (Septoria Tritici); test: Mycosphaerella graminicola (Septoria tritici) / liquid culture (Septoria blotch); type: cell-based; conditions: Zymoseptoria tritici, liquid culture (PDB), growth inhibition photometrically 4-5 days after application, read-out: disease control
Description: as §1, with “Graminicola (Septoria Tritici)/Liquid” for “Arachidis (Cercospora Arachidicola)/Liquid”, “(Septoria Blotch)” for “(Early Leaf Spot)”

[6] = tested on: Thanatephorus Cucumeris (Rhizoctonia Solani); test: Thanatephorus cucumeris (Rhizoctonia solani) / liquid culture (foot rot, damping-off); type: cell-based; conditions: liquid culture (PDB), growth inhibition photometrically 3-4 days after application, read-out: disease control
Description: Fungicidal Activity Against Thanatephorus Cucumeris (Rhizoctonia Solani)/Liquid Culture (Foot Rot, Damping-Off) Mycelia fragments of a newly grown liquid culture of the fungus were directly mixed into nutrient broth (PDB potato dextrose broth). After placing a (DMSO) solution of the test compounds into a microtiter plate (96-well format), the nutrient broth containing the fungal material was added. The test plates were incubated at 24° C. and the inhibition of growth was determined photometrically 3-4 days after application. Compounds (from table T1) 1, 2, 4, 7, 8, 10, 11, 13, 14 and 17 at 200 ppm give at least 80% disease control in this test when compared to untreated control leaf disks under the same conditions, which show extensive disease development.

OC(Cn1cncn1)(c1ccc(F)cc1)C1(c2ccc(Br)cn2)CCC1 (stereo not drawn) [Compound 17, 1-[1-(5-bromo-2-pyridyl)cyclobutyl]-1-(4-fluorophenyl)-2-(1,2,4-triazol-1-yl)ethanol]
≥ 80%: pest or weed control at 200 ppm [1] | pest or weed control at 200 ppm [2] | pest or weed control at 200 ppm [3] | inhibition of growth at 200 ppm [4] | inhibition of growth at 200 ppm [5] | inhibition of growth at 200 ppm [6]
